Measured values from US8063225B2, “Tricyclic compound derivatives useful in the treatment of neoplastic diseases, inflammatory disorders and immunomodulatory disorders” (Chembridge Corporation, priority 2006, dated 2011).

Tests used:
InsR = target: T1, InsR (Homo sapiens, UniProt P06213); assay: Tyrosine kinase assay (Kinase-Glo or AlphaScreen), InsR; conditions: biochemical tyrosine kinase assay
T1 construct: 6×His- or GST-tagged kinase domain fragments of the corresponding RTKs expressed in baculovirus system; host or cells: baculovirus system
Summary of the method: (§1)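 Recombinant His- or GST-tagged kinase domains from baculovirus were assayed with poly(Glu-Tyr, 4:1) substrate and 10 μM ATP in Tris-HCl pH 7.5 with Mg2+/Mn2+. Kinase-Glo: 37° C for 60 minutes, residual ATP read by luminescence. IC50 from non-linear regression over eight concentrations, 1 nM to 20 μM.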

Jak2 = target: T2, Jak2 (Homo sapiens, UniProt O60674); assay: Tyrosine kinase assay (Kinase-Glo or AlphaScreen), Jak2; conditions: biochemical tyrosine kinase assay
T2 construct: 6×His- or GST-tagged kinase domain fragments of the corresponding RTKs expressed in baculovirus system; host or cells: baculovirus system
Summary of the method: as §1

H929 (multiple myeloma) = assay: Cell proliferation inhibition, Cell Titer-Glo, H929; format: cell-based; conditions: Homo sapiens, NCI-H929; cell proliferation assay, H929 cells
Summary of the method: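 Cells seeded at 2500-5000 per well with serially diluted compound for typically 3 days. Viable cells measured by ATP luminescence (Cell Titer-Glo); IC50 from proliferation-inhibition curves.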

Ba/F3 = assay: Cell proliferation inhibition, Cell Titer-Glo, Ba/F3; format: cell-based; conditions: Mus musculus, BaF3; cell proliferation assay, Ba/F3 cells
Summary of the method: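 Ba/F3 cells were seeded at 2500-5000 cells per well in white, clear-bottomed 384-well culture plates and exposed to serial dilutions of test compounds for 3 days. Cell Titer-Glo Luminescent Cell Viability Assay (Promega) reagent, which measures total ATP as an indicator of metabolic activity, was added. Luminescence was read on a multiwell plate reader to derive IC50 values for inhibition of proliferation.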

T2 sequence (O60674 849-1124 limits assumed, species assumed): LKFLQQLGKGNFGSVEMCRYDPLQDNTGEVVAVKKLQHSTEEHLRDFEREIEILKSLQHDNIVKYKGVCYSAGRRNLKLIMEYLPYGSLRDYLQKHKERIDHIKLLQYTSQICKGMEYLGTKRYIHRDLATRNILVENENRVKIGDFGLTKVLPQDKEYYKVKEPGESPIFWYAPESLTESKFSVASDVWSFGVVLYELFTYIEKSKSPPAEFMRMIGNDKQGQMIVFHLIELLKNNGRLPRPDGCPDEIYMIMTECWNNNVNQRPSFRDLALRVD
T1 sequence (P06213 1023-1298 limits assumed, species assumed): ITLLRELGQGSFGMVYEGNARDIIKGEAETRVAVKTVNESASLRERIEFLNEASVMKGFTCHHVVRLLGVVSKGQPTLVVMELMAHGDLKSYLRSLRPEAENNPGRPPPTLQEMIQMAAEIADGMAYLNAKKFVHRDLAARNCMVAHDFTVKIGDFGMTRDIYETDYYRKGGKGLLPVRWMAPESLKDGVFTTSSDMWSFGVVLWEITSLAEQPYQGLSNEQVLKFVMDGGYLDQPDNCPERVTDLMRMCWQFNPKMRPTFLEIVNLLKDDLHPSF

Structure (SMILES)	IC50 (InsR)	IC50 (Jak2)	IC50 (H929 (multiple myeloma))	IC50 (Ba/F3)
Cc1c(Cl)cccc1OC[C@H](O)CNc1cc[nH]c(=O)c1-c1nc2cc3c(cc2[nH]1)C(=O)N(C1CCN(C)CC1)C3=O [compound 94]	< 0.5 µM	0.5 to 5 µM	5 to 15 µM	> 15 µM
Cc1ccc(OC[C@H](O)CNc2cc[nH]c(=O)c2-c2nc3c(C)c4c(cc3[nH]2)C(=O)N(C2CCN(C)CC2)C4=O)c(C)c1 [compound 110]	< 0.5 µM	0.5 to 5 µM	5 to 15 µM	5 to 15 µM
CN1CCC(N2C(=O)c3cc4nc(-c5c(NC[C@@H](O)COc6cccc(C(F)(F)F)c6)cc[nH]c5=O)[nH]c4cc3C2=O)CC1 [compound 97]	0.5 to 5 µM	0.5 to 5 µM	5 to 15 µM	> 15 µM
Cc1cc(C)n(C[C@H](O)CNc2cc[nH]c(=O)c2-c2nc3cc4c(cc3[nH]2)C(=O)N(C2CCN(C)CC2)C4=O)n1 [compound 92]	5 to 15 µM	5 to 15 µM		> 15 µM
Cc1ccc(OC[C@@H](O)CNc2cc[nH]c(=O)c2-c2nc3cc4c(cc3[nH]2)C(=O)N([C@@H]2CCN(C)C2)C4=O)c(C)c1 [compound 107]	< 0.5 µM	0.5 to 5 µM	5 to 15 µM	> 15 µM
Cc1ccc(OC[C@H](O)CNc2cc[nH]c(=O)c2-c2nc3cc4c(cc3[nH]2)C(=O)N(C2CCN(C)CC2)C4=O)cc1Cl [compound 99]	0.5 to 5 µM	0.5 to 5 µM		> 15 µM
CCN1CCC(N2C(=O)c3cc4nc(-c5c(NC[C@@H](O)COc6ccc(C)cc6C)cc[nH]c5=O)[nH]c4cc3C2=O)CC1 [compound 143]	0.5 to 5 µM	0.5 to 5 µM	5 to 15 µM	
CN1CCC(N2C(=O)c3cc4nc(-c5c(NC[C@@H](O)COc6cccc(Cl)c6F)cc[nH]c5=O)[nH]c4cc3C2=O)CC1 [compound 96]	< 0.5 µM	5 to 15 µM	5 to 15 µM	> 15 µM
Cc1ccc(Cl)c(C)c1OC[C@H](O)CNc1cc[nH]c(=O)c1-c1nc2cc3c(cc2[nH]1)C(=O)N(C1CCN(C)CC1)C3=O [compound 111]	0.5 to 5 µM	0.5 to 5 µM		5 to 15 µM
Cc1cc(C)c(OC[C@H](O)CNc2cc[nH]c(=O)c2-c2nc3cc4c(cc3[nH]2)C(=O)N(C2CCN(C)CC2)C4=O)c(CS(C)(=O)=O)c1 [compound 84]	0.5 to 5 µM	0.5 to 5 µM	0.5 to 5 µM	> 15 µM
CN1CCC(N2C(=O)c3cc4nc(-c5c(NC[C@@H](O)COc6cccc(OC(F)(F)C(F)F)c6)cc[nH]c5=O)[nH]c4cc3C2=O)CC1 [compound 91]	0.5 to 5 µM	0.5 to 5 µM	0.5 to 5 µM	> 15 µM
Cc1ccc(OC[C@@H](O)CNc2cc[nH]c(=O)c2-c2nc3cc4c(cc3[nH]2)C(=O)N(C2CCN(C)CC2)C4=O)c(C)c1 [compound 64]	0.5 to 5 µM	0.5 to 5 µM		5 to 15 µM
CCc1cc(C)ccc1OC[C@H](O)CNc1cc[nH]c(=O)c1-c1nc2cc3c(cc2[nH]1)CN(C1CCN(C)CC1)C3=O [compound 141]	< 0.5 µM	< 0.5 µM	< 0.5 µM	
Cc1ncsc1CCN1C(=O)c2cc3nc(-c4c(NC[C@@H](O)c5cccc(Cl)c5)cc[nH]c4=O)[nH]c3cc2C1=O [compound 32]	> 15 µM	> 15 µM	5 to 15 µM	0.5 to 5 µM
C[C@H](O)CN1C(=O)c2cc3nc(-c4c(NC[C@@H](O)c5cccc(Cl)c5)cc[nH]c4=O)[nH]c3cc2C1=O [compound 31]	0.5 to 5 µM	5 to 15 µM	0.5 to 5 µM	> 15 µM
O=C1c2cc3nc(-c4c(NC[C@@H](O)c5cccc(Cl)c5)cc[nH]c4=O)[nH]c3cc2C(=O)N1[C@@H]1CN2CCC1CC2 [compound 33]	< 0.5 µM	0.5 to 5 µM		> 15 µM
CN1CCC(N2C(=O)c3cc4nc(-c5c(NC[C@@H](O)COc6ccc7ccccc7c6)cc[nH]c5=O)[nH]c4cc3C2=O)CC1 [compound 88]	0.5 to 5 µM	0.5 to 5 µM	5 to 15 µM	5 to 15 µM

Structure (SMILES)	IC50 (InsR)	IC50 (Jak2)	IC50 (H929 (multiple myeloma))	IC50 (Ba/F3)
Cc1ccc(OC[C@H](O)CNc2cc[nH]c(=O)c2-c2nc3cc4c(cc3[nH]2)C(=O)N(C2CCNCC2)C4=O)c(C)c1 [compound 142]	< 0.5 µM	0.5 to 5 µM		
CN1CCC(N2C(=O)c3cc4nc(-c5c(N[C@H](CO)Cc6c[nH]cn6)cc[nH]c5=O)[nH]c4cc3C2=O)CC1 [compound 2]	> 15 µM	> 15 µM		> 15 µM
O=C1c2cc3nc(-c4c(NC[C@@H](O)c5cccc(Cl)c5)cc[nH]c4=O)[nH]c3cc2C(=O)N1C[C@@H]1CCCO1 [compound 29]	> 15 µM	> 15 µM		5 to 15 µM
Cc1ccc(OC[C@@H](O)CNc2cc[nH]c(=O)c2-c2nc3cc4c(cc3[nH]2)C(=O)N([C@H]2CCN(C)C2)C4=O)c(C)c1 [compound 106]	< 0.5 µM	0.5 to 5 µM	5 to 15 µM	5 to 15 µM
Cc1cc(C)c(OC[C@H](O)CNc2cc[nH]c(=O)c2-c2nc3cc4c(cc3[nH]2)C(=O)N(C2CCN(C)CC2)C4=O)c(C)c1 [compound 98]	< 0.5 µM	5 to 15 µM	5 to 15 µM	> 15 µM
CN1CCC(N2C(=O)c3cc4nc(-c5c(NC[C@@H](O)c6cccc(Cl)c6)cc[nH]c5=O)[nH]c4cc3C2=O)CC1 [compound 1]	< 0.5 µM	0.5 to 5 µM	0.5 to 5 µM	
CCN1CCC(N2Cc3cc4nc(-c5c(NC[C@@H](O)COc6ccc(C)cc6C)cc[nH]c5=O)[nH]c4cc3C2=O)CC1 [compound 144]	0.5 to 5 µM	< 0.5 µM	0.5 to 5 µM	
Cc1ccc(OC[C@H](O)CNc2cc[nH]c(=O)c2-c2nc3cc4c(c(C)c3[nH]2)CN(C2CCN(C)CC2)C4=O)c(C)c1 [compound 132]	< 0.5 µM	< 0.5 µM	< 0.5 µM	
CN1CCC(N2C(=O)c3cc4nc(-c5c(NC[C@@H](O)COc6c(F)ccc(Cl)c6F)cc[nH]c5=O)[nH]c4cc3C2=O)CC1 [compound 95]	< 0.5 µM	0.5 to 5 µM	5 to 15 µM	> 15 µM
Cc1ccc(OC[C@H](O)CNc2cc[nH]c(=O)c2-c2nc3c(C)c4c(cc3[nH]2)C(=O)N(C2CCN(C)CC2)C4)c(C)c1 [compound 139]	< 0.5 µM	0.5 to 5 µM	0.5 to 5 µM	
Cc1ccc(OC[C@H](O)CNc2cc[nH]c(=O)c2-c2nc3c(C)c4c(cc3[nH]2)CN(C2CCN(C)CC2)C4=O)c(C)c1 [compound 140]	< 0.5 µM	< 0.5 µM	< 0.5 µM	
COc1cccc(OCC(O)CNc2cc[nH]c(=O)c2-c2nc3cc4c(cc3[nH]2)C(=O)N(C2CCN(C)CC2)C4=O)c1 (centres unmarked) [compound 6]	0.5 to 5 µM	0.5 to 5 µM	5 to 15 µM	
CC(C)(CO)CN1C(=O)c2cc3nc(-c4c(NC[C@@H](O)c5cccc(Cl)c5)cc[nH]c4=O)[nH]c3cc2C1=O [compound 26]	5 to 15 µM	0.5 to 5 µM		
O=C1c2cc3nc(-c4c(NC[C@@H](O)c5cccc(Cl)c5)cc[nH]c4=O)[nH]c3cc2C(=O)N1CCc1ccncc1 [compound 28]	5 to 15 µM	5 to 15 µM		> 15 µM
Cc1ccc(OCC(O)CNc2cc[nH]c(=O)c2-c2nc3cc4c(cc3[nH]2)C(=O)N(C2CCN(C)CC2)C4=O)c(C)c1 (centres unmarked) [compound 15]	< 0.5 µM	0.5 to 5 µM	0.5 to 5 µM	
Cc1cc(C)c(OC[C@H](O)CNc2cc[nH]c(=O)c2-c2nc3cc4c(cc3[nH]2)C(=O)N(C2CCN(C)CC2)C4=O)cc1Cl [compound 108]	0.5 to 5 µM	0.5 to 5 µM		> 15 µM
Cc1ccc(OC[C@H](O)CNc2cc[nH]c(=O)c2-c2nc3cc4c(cc3[nH]2)CN(C2CCN(C)CC2)C4=O)c(C)c1 [compound 130]	< 0.5 µM	< 0.5 µM	0.5 to 5 µM	
